# Data: patent publication US20260159512A1, “BCAT2 INHIBITORS” (AGIOS PHARMACEUTICALS, INC., priority 2021, published 2026)
# Key:
# Conditions in all cases: average where tested multiple times
# BCAT2 [1] = target: T1, BCAT2 (Homo sapiens, UniProt O15382); assay: BCAT2 in vitro enzyme inhibition assay (resazurin/diaphorase-coupled fluorescence); assay type: biochemical
# T1 sequence (O15382 28-392): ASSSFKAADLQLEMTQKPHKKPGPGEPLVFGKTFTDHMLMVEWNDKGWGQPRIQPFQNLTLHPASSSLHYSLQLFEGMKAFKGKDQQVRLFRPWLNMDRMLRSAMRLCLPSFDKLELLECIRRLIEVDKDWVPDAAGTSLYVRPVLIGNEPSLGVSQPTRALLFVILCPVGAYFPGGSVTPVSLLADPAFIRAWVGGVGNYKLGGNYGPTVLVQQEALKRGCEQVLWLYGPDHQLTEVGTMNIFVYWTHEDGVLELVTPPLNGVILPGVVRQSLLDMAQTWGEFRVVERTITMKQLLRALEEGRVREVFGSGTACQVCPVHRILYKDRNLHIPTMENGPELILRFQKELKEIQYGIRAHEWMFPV
# How it was run: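 Coupled fluorescence readout: glutamate formed from L-leucine/α-ketoglutarate transamination drives GDH/NAD/diaphorase reduction of resazurin (Ex 540/Em 590). Human BCAT2 was first exposed 1 h at room temperature to compound, top final 100 μM in 3-fold, 10-point series; substrate reaction ran 1 h before SDS quench, in technical duplicate with DMSO max and enzyme-free min controls.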
# hBCAT1 = target: T2, hBCAT1 (Homo sapiens, UniProt P54687); assay: BCAT1 in vitro enzyme inhibition assay (resazurin/diaphorase-coupled fluorescence); assay type: biochemical
# T2 sequence (P54687 1-386): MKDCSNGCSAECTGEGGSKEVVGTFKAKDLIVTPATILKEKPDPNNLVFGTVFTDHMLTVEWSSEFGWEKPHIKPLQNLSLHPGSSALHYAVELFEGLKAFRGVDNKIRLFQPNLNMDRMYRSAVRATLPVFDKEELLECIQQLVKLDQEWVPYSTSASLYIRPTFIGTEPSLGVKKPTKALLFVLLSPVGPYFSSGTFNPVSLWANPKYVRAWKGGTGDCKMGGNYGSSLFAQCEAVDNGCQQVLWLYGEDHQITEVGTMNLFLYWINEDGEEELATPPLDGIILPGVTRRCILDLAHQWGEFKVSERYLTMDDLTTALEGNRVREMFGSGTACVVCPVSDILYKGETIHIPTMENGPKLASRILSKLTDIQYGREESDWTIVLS
# How it was run: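 Ten-point, 3-fold compound series (top final 100 μM, delivered 1:50 from 50× DMSO stocks) tested against hBCAT1. Inhibition detected via diaphorase-coupled resazurin fluorescence, duplicate wells, with values from repeated runs averaged.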
# BCAT2 [2] = target: T1, BCAT2; assay: BCAT2 in vitro cell inhibition using engineered A549 cells (KMV cell assay, 13C6-KMV by LC-MS/MS); assay type: cell-based; parameters: The result was an engineered A549 cell line that expressed endogenous BCAT2; endogenous in cells; host or cells: A549 cells with MUT and BCAT1 knocked out by CRISPR/CAS9; key to BCAT2 Cell Inhibition: A: less than or equal to 0.100 μM; B: greater than 0.100 and less than or equal to 0.500 μM; C: greater than 0.500 and less than or equal to 1.000 μM; d: greater than 1.000 μM; E: no fit
SMILES,IC50 (BCAT2 [1]) [nM],IC50 (hBCAT1) [nM],IC50 (BCAT2 [2]) [nM],BCAT2 Cell Inhibition (BCAT2 [2])
"COc1ccc(F)c(-c2nc3cnc(-c4nc[nH]n4)cc3n2[C@@H]2CCC[C@H](NC(=O)c3ccc(Cl)s3)C2)c1 [Example 343, 5-chloro-N-((1S,3R)-3-(2-(2-fluoro-5-methoxyphenyl)-6-(1H-1,2,4-triazol-3-yl)-1H-imidazo[4,5-c]pyridin-1-yl)cyclohexyl)thiophene-2-carboxamide]",≤ 100,1000 to 5000,100 to 500,
"Cc1nc2cnc(-n3ccnn3)cc2n1[C@@H]1CCC[C@H](NC(=O)c2ccc(Br)s2)C1 [Example 52, 5-bromo-N-((1S,3R)-3-(2-methyl-6-(1H-1,2,3-triazol-1-yl)-1H-imidazo[4,5-c]pyridin-1-yl)cyclohexyl)thiophene-2-carboxamide]",> 1000,> 5000,,E
"COc1cccc(F)c1-c1nc2cnc(-c3nc[nH]n3)cc2n1[C@@H]1CCCC[C@H](NC(=O)c2ccc(Cl)s2)[C@H]1O [Example 407, 5-chloro-N-((1S,2R,3R)-3-(2-(2-fluoro-6-methoxyphenyl)-6-(1H-1,2,4-triazol-3-yl)-1H-imidazo[4,5-c]pyridin-1-yl)-2-hydroxycycloheptyl)thiophene-2-carboxamide]",≤ 100,< 500,≤ 100,
"C#Cc1cnc(C(=O)N[C@H]2CCC[C@@H](n3c(-c4ccccn4)nc4cnc(-n5ccnn5)cc43)C2)s1 [Example 33, 5-ethynyl-N-((1S,3R)-3-(2-(pyridin-2-yl)-6-(1H-1,2,3-triazol-1-yl)-1H-imidazo[4,5-c]pyridin-1-yl)cyclohexyl)thiazole-2-carboxamide]",≤ 100,1000 to 5000,500 to 1000,
"CC(=O)N1CC(NC(=O)c2ncc(C(F)F)s2)CC(n2c(-c3ccccc3F)nc3cnc(-n4ccnn4)cc32)C1 (stereo not drawn) [Example 124, N-(1-acetyl-5-(2-(2-fluorophenyl)-6-(1H-1,2,3-triazol-1-yl)-1H-imidazo[4,5-c]pyridin-1-yl)piperidin-3-yl)-5-(difluoromethyl)thiazole-2-carboxamide]",≤ 100,1000 to 5000,100 to 500,
"Cn1cc(-c2nc3cnc(-n4ccnn4)cc3n2[C@@H]2CCC[C@H](NC(=O)c3ncc(C(F)F)s3)C2)cn1 [Example 46, 5-(difluoromethyl)-N-((1S,3R)-3-(2-(1-methyl-1H-pyrazol-4-yl)-6-(1H-1,2,3-triazol-1-yl)-1H-imidazo[4,5-c]pyridin-1-yl)cyclohexyl)thiazole-2-carboxamide]",> 1000,> 5000,,E
"CO[C@H]1C[C@H](NC(=O)c2ncc(Cl)s2)C[C@H](n2c(CC(C)C)nc3cnc(-n4cncn4)cc32)C1 [Example 417, 5-chloro-N-((1R,3S,5S)-3-(2-isobutyl-6-(1H-1,2,4-triazol-1-yl)-1H-imidazo[4,5-c]pyridin-1-yl)-5-methoxycyclohexyl)thiazole-2-carboxamide]",100 to 500,1000 to 5000,> 1000,
"O=C(N[C@H]1CCC[C@@H](n2c(-c3ccccn3)nc3cnc(-n4nccn4)cc32)C1)c1ncc(C(F)F)s1 [Example 21, 5-(difluoromethyl)-N-((1S,3R)-3-(2-(pyridin-2-yl)-6-(2H-1,2,3-triazol-2-yl)-1H-imidazo[4,5-c]pyridin-1-yl)cyclohexyl)thiazole-2-carboxamide]",≤ 100,500 to 1000,100 to 500,
"O=C(N[C@H]1CCC[C@@H](n2c(-c3ncccc3F)nc3cnc(-c4nc[nH]n4)cc32)C1)c1ccc(Cl)s1 [Example 80, 5-chloro-N-((1S,3R)-3-(2-(3-fluoropyridin-2-yl)-6-(1H-1,2,4-triazol-3-yl)-1H-imidazo[4,5-c]pyridin-1-yl)cyclohexyl)thiophene-2-carboxamide]",≤ 100,< 500,≤ 100,
"O=C(N[C@H]1CCC[C@@H](n2c(-c3ncccc3F)nc3cnc(-n4nccn4)nc32)C1)c1ncc(C(F)F)s1 [Example 58, 5-(difluoromethyl)-N-((1S,3R)-3-(8-(3-fluoropyridin-2-yl)-2-(2H-1,2,3-triazol-2-yl)-9H-purin-9-yl)cyclohexyl)thiazole-2-carboxamide]",≤ 100,1000 to 5000,100 to 500,
"O=C(N[C@H]1CCC[C@@H](n2c(-c3ncccc3F)nc3cnc(-c4nc[nH]n4)cc32)C1)c1ncc(C(F)F)s1 [Example 75, 5-(difluoromethyl)-N-((1S,3R)-3-(2-(3-fluoropyridin-2-yl)-6-(1H-1,2,4-triazol-3-yl)-1H-imidazo[4,5-c]pyridin-1-yl)cyclohexyl)thiazole-2-carboxamide]",≤ 100,< 500,≤ 100,

# Continued, values first:
IC50 (BCAT2 [1]) [nM],IC50 (hBCAT1) [nM],IC50 (BCAT2 [2]) [nM],BCAT2 Cell Inhibition (BCAT2 [2]),SMILES
≤ 100,< 500,≤ 100,,"O=C(N[C@H]1CCC[C@@H](n2c(-c3ccccc3F)nc3cnc(-c4cc(F)ccn4)cc32)C1)c1ncc(Cl)s1 [Example 168, 5-chloro-N-((1S,3R)-3-(2-(2-fluorophenyl)-6-(4-fluoropyridin-2-yl)-1H-imidazo[4,5-c]pyridin-1-yl)cyclohexyl)thiazole-2-carboxamide]"
≤ 100,< 500,≤ 100,,"CC(C)Cc1nc2cnc(-c3ncccn3)cc2n1[C@@H]1CCC[C@H](NC(=O)c2ncc(Cl)s2)C1 [Example 331, 5-chloro-N-((1S,3R)-3-(2-isobutyl-6-(pyrimidin-2-yl)-1H-imidazo[4,5-c]pyridin-1-yl)cyclohexyl)thiazole-2-carboxamide]"
100 to 500,1000 to 5000,,E,"CC(C)Cc1nc2cnc(-c3ccc4ccoc4c3)cc2n1[C@@H]1CCC[C@H](NC(=O)c2ncc(Cl)s2)C1 [Example 319, N-((1S,3R)-3-(6-(benzofuran-6-yl)-2-isobutyl-1H-imidazo[4,5-c]pyridin-1-yl)cyclohexyl)-5-chlorothiazole-2-carboxamide]"
≤ 100,< 500,≤ 100,,"Cc1cn[nH]c1-c1cc2c(cn1)nc(-c1ccccc1F)n2[C@@H]1CCC[C@H](NC(=O)c2ncc(Cl)s2)C1 [Example 186, 5-chloro-N-((1S,3R)-3-(2-(2-fluorophenyl)-6-(4-methyl-1H-pyrazol-5-yl)-1H-imidazo[4,5-c]pyridin-1-yl)cyclohexyl)thiazole-2-carboxamide]"
≤ 100,< 500,≤ 100,,"O=C(N[C@H]1CCC[C@@H](n2c(-c3ccccc3F)nc3cnc(-c4ncccc4F)cc32)C1)c1ncc(Cl)s1 [Example 169, 5-chloro-N-((1S,3R)-3-(2-(2-fluorophenyl)-6-(3-fluoropyridin-2-yl)-1H-imidazo[4,5-c]pyridin-1-yl)cyclohexyl)thiazole-2-carboxamide]"
≤ 100,500 to 1000,100 to 500,,"CO[C@H]1C[C@H](NC(=O)c2ncc(Cl)s2)C[C@H](n2c(CC(C)C)nc3cnc(-c4nc(C)co4)cc32)C1 [Example 409, 5-chloro-N-((1R,3S,5S)-3-(2-isobutyl-6-(4-methyloxazol-2-yl)-1H-imidazo[4,5-c]pyridin-1-yl)-5-methoxycyclohexyl)thiazole-2-carboxamide]"
≤ 100,500 to 1000,100 to 500,,"Cc1coc(-c2cc3c(cn2)nc(CC(C)C)n3[C@@H]2CCC[C@H](NC(=O)c3ncc(Cl)s3)C2)n1 [Example 306, 5-chloro-N-((1S,3R)-3-(2-isobutyl-6-(4-methyloxazol-2-yl)-1H-imidazo[4,5-c]pyridin-1-yl)cyclohexyl)thiazole-2-carboxamide]"
